According to patent US20120288482A1, “THERAPEUTIC AGENT (Y-39983) FOR CORNEAL ENDOTHELIAL DYSFUNCTION” (priority 2009, published 2012):

Assays:
[1] = tested on: corneoscleral tissues; assay: Cell death suppression in cornea preserved in corneal storage solution (Example 10); format: cell-based, rabbit; conditions: 4° C.
Protocol: In this Example, test substances and control substances prepared in the same manner as in Example 4 were used. Both right and left eyeballs of 5 male Japanese white rabbits (Biotek Co., Ltd.) were removed, and corneoscleral tissues were prepared. One corneoscleral tissue was placed in a storage solution Optisol-GS (registered trade mark) (Bausch & Lomb, Inc) (control), and the other corneoscleral tissue was placed in Optisol-GS containing 0.95 μM compound (I). Similarly, corneoscleral tissues were prepared from another 5 male Japanese white rabbits, one corneoscleral tissue was placed in Optisol-GS (control), and the other corneoscleral tissue was placed in Optisol-GS containing 10 μM Y-27632. The samples containing each corneoscleral tissue were preserved at 4° C. Two or three weeks later, the corneoscleral tissues were stained with Hoechst (Hoechst 33342, Sigma, Cat. #B2261), PI (propidium iodide, Sigma, Cat. #P4170) and Annexin V (Annexin V-FITC, MBL, Cat. #4700-100), and the cells therein were indentified as living cells, dead cells and apoptotic cells. In addition, the various cells in the stained cornea were counted using ImageJ (ver.1.44i, NIH, http://imagej.nih.gov/ij), and the mean value and the standard deviation of 5 visual fields were determined. The various cell counts were statistically analyzed by the student's t-test.

[2] = tested on: rabbit corneal endothelial cells; assay: In vitro wound healing model of rabbit corneal endothelial cells (Example 9); format: cell-based
Protocol: In this Example, test substances and control substance prepared in the same manner as in Example 4 were used. Corneoscleral tissue was collected from 10 rabbit eyeballs purchased from Funakoshi Corporation. The corneoscleral tissue was immersed in DMEM (Invitrogen, Cat. #12320-032) containing 1% penicillin/streptomycin (Invitrogen, Cat. #15140-122), and incubated at 37° C. for 1 hour. The Descemet's membrane was stripped together with intact corneal endothelial cells, immersed in a culture medium (DMEM, 10% FBS, 2 ng/mL bFGF (Invitrogen, Cat. #13256-029), 1% penicillin/streptomycin) containing 2 mg/mL Collagenase A (Roche, Cat. #1088793), and incubated at 37° C. for 2 hours. The cells were collected by centrifugation, washed with the culture medium, and seeded in a T25 flask (Corning Incorporated, Cat. #430639) coated with FNC coating mix (Athena ES, Cat. #0407). The flask were left standing in a 5% CO2 incubator at 37° C., the medium was exchanged every 2-3 days, and the cells were cultured to confluent. The cells that reached confluent were collected, seeded in two 6 well plates (Falcon, Cat. #3046) coated with FNC coating mix, and cultured to confluent. The prepared rabbit corneal endothelial cells were collected, seeded in a 6 well plate at a division ratio of 1:4, and cultured to confluent in the same culture medium as in the above-mentioned (1). Linear wound was created in the confluent cells using 1000 μL chip (6 wounds per well). After creating the linear wounds, the culture medium was exchanged, and 0.95 μM, 1.58 μM and 3.16 μM compound (I), 10 μM Y-27632 and 0.04% DMSO were added. Compound (I) and Y-27632 were dissolved in DMSO in advance, where the DMSO concentration was adjusted to 0.04% for both. The width of the wound at 0, 6, 12 and 24 hours after the addition was photographed over time. The wound width was measured by Image-Pro plus (Media Cybernetics, Inc.). The ratio of wound width at each hour was calculated by taking that at 0 hour after the addition of medicament as 100%, and the time-course changes of the ratio of wound width were evaluated. The ratio of wound width was applied to statistical analysis according to the Dunnett's test at each time point.

[3] = tested on: rabbit corneal endothelial cells; assay: Production of cultured corneal endothelial cell sheet for transplantation, ZO-1 and Na+/K+ ATPase immunostaining (Example 7); format: cell-based; conditions: for coverage of the sheet with cells / expression of Na+/K+ ATPase / expression of ZO-1: 48 hours after seeding
Protocol: In this Example, rabbit corneal endothelial cells prepared in the same manner as in Example 4 were used.
In this Example, moreover, test substances and control substance prepared in the same manner as in Example 4 were used.
The rabbit corneal endothelial cells were seeded on Vitrigel™ (Asahi Glass) at a division ratio of 1:1, and a cultured corneal endothelial cell sheet for transplantation was produced. When producing the corneal endothelial cell sheet, 0.95 μM compound (I), 10 μM Y-27632 or 0.04% DMSO was added. The obtained corneal endothelial cell sheet was subjected to fluorescence immunostaining with ZO-1 and Na^+/K^+ ATPase, which are functional proteins of corneal endothelial cells, and expression was confirmed.
The corneal endothelial cell sheet was fixed with 95% ethanol (−30° C.) for 10 min, washed with PBS, and treated with 0.5% Triton X-100/PBS for 5 min. Then, it was treated with 1% BSA/PBS for 1 hour, and treated overnight with anti-ZO-1 antibody (Invitrogen, Cat. #339100) or anti-Na^+/K^+ ATPase antibody (Millipore, Cat. #C464.6). After washing with PBS, it was treated with Alexa-488 labeling secondary antibody for 1 hour. After washing with PBS, mounting medium (Vectashield (registered trade mark)) containing DAPI was added dropwise to the sheet, and the sheet was sealed with cover glass. The image was taken with a fluorescence microscope to confirm expression of ZO-1 and Na^+/K^+ ATPase. The immunostaining was performed both 48 hours and 14 days after the seeding (FIG. 10 and FIG. 11).

| SMILES | number of dead cells versus control ([1]; 0.95 μM in Optisol-GS, 2 weeks) | number of apoptotic cells versus control ([1]; 0.95 μM in Optisol-GS, 3 weeks) | number of dead cells versus control ([1]; 0.95 μM in Optisol-GS, 3 weeks) | concentration showing the highest effect in the in vitro wound healing model [2] | ratio of wound width versus control ([2]; 0.95 μM, 6 hours after addition, Dunnett's test) | wound healing effect ([2]; 1.58 μM) | ratio of wound width versus control ([2]; compound (I), 24 hours after addition, Dunnett's test) | concentration showing a wound healing promoting effect ([2]; in vitro wound healing model, Example 9) [µM] | coverage of the sheet with cells ([3]; 0.95 μM) | expression of Na+/K+ ATPase ([3]; 0.95 μM) | expression of ZO-1 ([3]; 0.95 μM) | time in which a cultured corneal endothelial cell sheet for transplantation can be produced ([3]; from the addition to culture medium) [h] | number of dead cells versus control ([1]; 10 μM in Optisol-GS) | ratio of wound width versus control ([2]; 10 μM, 24 hours after addition) | coverage of the sheet with cells ([3]; 10 μM) | expression of Na+/K+ ATPase ([3]; 10 μM) | expression of ZO-1 ([3]; 10 μM) |
| --- | --- | --- | --- | --- | --- | --- | --- | --- | --- | --- | --- | --- | --- | --- | --- | --- | --- |
| C[C@@H](N)c1ccc(C(=O)Nc2ccnc3[nH]ccc23)cc1.Cl [compound (I), (R)-(+)-N-(1H-pyrrolo[2,3-b]pyridin-4-yl)-4-(1-aminoethyl)benzamide monohydrochloride] | decreased significantly | decreased significantly | decreased significantly | about 0.95 μM | statistically significant difference from the control | significant effect, the effect was weaker than that of the 0.95 μM compound (I) | statistically significant difference even 24 hours later | 0.95 to 1.58 | cells were adhered to the whole surface of the sheet | found between cells in all | found between cells uniformly | 48 | – | – | – | – | – |
| C[C@@H](N)[C@H]1CC[C@H](C(=O)Nc2ccncc2)CC1 [Y-27632, reference compound] | – | – | – | – | – | – | – | – | – | – | – | – | only the number of dead cells decreased significantly | showed a difference from the control for the first time | partially uncovered with cells | found between cells in all | found between cells uniformly |
